tested on: M. tuberculosis isolates and drug resistance strains; assay type: cell-based, Mycobacterium tuberculosis

Molecule	In vitro activity (result in words)
N2-(2-{[(E)-3-(4-chlorophenyl)-2-propenoyl]amino}-1,3-benzothiazol-6-yl)-5-nitro-2-furamide [Compound 6w]	good in vitro activity
O=[N+]([O-])c1ccc(C=NNc2nc3ccc(OC(F)(F)F)cc3s2)s1 [Compound 3j, 5-nitro-2-thiophenecarbaldehyde 2-(6-trifluoromethoxy-1,3-benzothiazole-2-yl)hydrazone]	good in vitro activity
O=C(Nc1nc2ccc(NC(=O)c3ccc([N+](=O)[O-])o3)cc2s1)c1ccc(Cl)cc1 [Compound 6g, N2-{2-[(4-chlorobenzoyl)amino]-1,3-benzothiazol-6-yl}-5-nitrofuramide]	good in vitro activity
O=C(Nc1ccc2nc(NC(=O)c3ccc(F)cc3F)sc2c1)c1ccc([N+](=O)[O-])o1 [Compound 6i, N2-{2-[(2,4-difluorobenzoyl)amino]-1,3-benzothiazol-6-yl}-5-nitrofuramide]	good in vitro activity
O=C(Nc1ccc2nc(NC(=O)c3ccc([N+](=O)[O-])o3)sc2c1)c1ccc([N+](=O)[O-])o1 [Compound 8a, N2-(2-{[(5-nitro-2-furyl)carbonyl]amino}-1,3-benzothiazol-6-yl}-5-nitro-2-furamide]	good in vitro activity
O=C(NNc1nc2ccc(OC(F)(F)F)cc2s1)c1ccc([N+](=O)[O-])o1 [Compound 4e, N′2-(6-trifluoromethoxy-1,3-benzothiazol-2-yl)-5-nitro-2-furanecarbohydrazide]	good in vitro activity
O=C(Nc1nc2ccc(NC(=O)c3ccc([N+](=O)[O-])o3)cc2s1)c1cnccn1 [Compound 6p, N2-(6-{[(5-nitro-2-furyl)carbonyl]amino}-1,3-benzothiazol-2-yl)-2-pyrazinecarboxamide]	good in vitro activity
O=C(Nc1nc2ccc(NC(=O)c3ccc([N+](=O)[O-])o3)cc2s1)c1ccc(F)cc1 [Compound 6f, N2-{2-[(4-fluorobenzoyl)amino]-1,3-benzothiazol-6-yl}-5-nitrofuramide]	good in vitro activity
